The record followed here is PubChem BioAssay (NCI).

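These data come from cells grown in 96-well plates and exposed to compound for 48 hours at five concentrations. GI50 is the concentration that inhibits growth by half. TGI: concentration producing complete growth inhibition.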

Among the test systems are IGROV1 ovarian; UACC-62 melanoma; U251 CNS; HCT-15 colon; OVCAR-3 ovarian; SK-OV-3 ovarian; HCT-116 colon; SN12C renal; 786-0 renal; SNB-75 CNS.
Holding throughout (assay): growth of human tumour cells (NCI), 48 h

With `NCCN1CCN(c2nccc(-c3ccc4ccccc4c3)n2)CC1`, the GI50 was 1.97 µM in the assay with IGROV1 ovarian; 1.87 µM in the assay with UACC-62 melanoma; 1.85 µM in the assay on U251 CNS; 1.79 µM in the assay with HCT-15 colon; 2.36 µM in the assay on OVCAR-3 ovarian; 2.1 µM with SK-OV-3 ovarian. The GI50 was 1.79 µM with HCT-116 colon, 1.71 µM in the assay with SN12C renal, 1.69 µM in the assay on 786-0 renal and 1.41 µM with SNB-75 CNS. Further, the TGI in the assay on IGROV1 ovarian stood at 4.12 µM; in the assay with UACC-62 melanoma, 3.65 µM; in the assay with U251 CNS it was 3.52 µM; with HCT-15 colon, 3.54 µM; in the assay on OVCAR-3 ovarian, 5.45 µM; in the assay on SK-OV-3 ovarian it was 5.34 µM. Besides, the TGI was 3.3 µM in the assay on HCT-116 colon, 3.81 µM with SN12C renal, 3.17 µM in the assay with 786-0 renal and 2.9 µM in the assay on SNB-75 CNS.
As for `CC(C)(C)C1(O)Cc2ccccc2C(=O)O1` (stereo not given), the TGI in the assay on IGROV1 ovarian, in the assay on UACC-62 melanoma, in the assay on U251 CNS, with HCT-15 colon, in the assay with OVCAR-3 ovarian and in the assay with SK-OV-3 ovarian was more than 100 µM throughout. For the same molecule, the TGI with HCT-116 colon, in the assay on SN12C renal, in the assay on 786-0 renal and with SNB-75 CNS was more than 100 µM throughout.
As to `Oc1c(Br)cc(CN(Cc2cc(Br)c(O)c(Br)c2)C2CCCCC2)cc1Br`, the TGI with IGROV1 ovarian, with UACC-62 melanoma, in the assay with U251 CNS, with HCT-15 colon, in the assay with OVCAR-3 ovarian and in the assay with SK-OV-3 ovarian was more than 100 µM each time. Moreover, the TGI with HCT-116 colon, in the assay with SN12C renal, in the assay with 786-0 renal and in the assay with SNB-75 CNS was more than 100 µM in each case.
On to `C=C(C)[C@@H]1CC[C@@]2(C(=O)O)CC[C@]3(C)C(CCC4[C@@]5(C)CCC(OS(=O)(=O)c6ccccc6)C(C)(C)C5CC[C@]43C)C12` (stereo not given in full), for which the GI50 in the assay with IGROV1 ovarian is 10.4 µM; in the assay on UACC-62 melanoma, 2.55 µM; in the assay with U251 CNS it was 3.62 µM; in the assay on HCT-15 colon, 2.93 µM; in the assay with OVCAR-3 ovarian, 3.95 µM; in the assay on SK-OV-3 ovarian, 14 µM. Moreover, the GI50 is 2.9 µM in the assay with HCT-116 colon, 4.88 µM in the assay with SN12C renal, 4.73 µM in the assay on 786-0 renal and 11.5 µM with SNB-75 CNS. Besides, the TGI in the assay on IGROV1 ovarian is 31.2 µM; in the assay with UACC-62 melanoma, 19.3 µM; with U251 CNS it was 15.7 µM; with HCT-15 colon it was 19.9 µM; in the assay on OVCAR-3 ovarian, 14.9 µM; in the assay on SK-OV-3 ovarian it was 44.4 µM. The TGI in the assay on HCT-116 colon was determined as 13.1 µM; in the assay on SN12C renal, 30.6 µM; with 786-0 renal it was 19 µM; with SNB-75 CNS, 30.5 µM.
